The results in this text go back to PMC10745061 (Marine Drugs, 2023).

SMILES strings stand for the structures. Where a SMILES comes first, the peptide text is derived from it. Bridges are numbered along the chain shown (N, C = ends).

In data set [1] the test system is human red blood cells (hRBCs). The data set is described as follows: Hemolysis, hemoglobin release assay. In kind it is cell-based. Conditions: hemoglobin release assay, 2 h incubation, two independent donors. Here is the method: Figure 3 Biological activity of the peptides towards human cells. (A) Hemolytic effect on human red blood cells (hRBCs) after 2 h incubation (the hemoglobin release assay). (B) Cytotoxicity towards transformed human embryonic kidney cells (HEK293T) after 16 h incubation (the resazurin assay).
The hemolytic activity of the peptides was tested against the fresh suspension of human red blood cells (hRBC) using the hemoglobin release assay, as described previously. Two experiments were performed with hRBC from blood samples of independent donors. The quantitative data are represented as average means with standard deviations. The cytotoxic effect of the peptides was tested on transformed human embryonic kidney cells (HEK293T) using the resazurin assay. The technique is based on the ability of live cell dehydrogenases to reduce a blue resazurin to pink and fluorescent resorufin. A total of 10^4 cells per well in Dulbecco’s modified Eagle’s medium (DMEM/F12) supplemented with 10% FBS were placed into 96-well plates for 24 h in the CO2-incubator (5% CO2, 37 °C). […] Fluorescence of the formed resorufin was measured with the microplate reader AF2200 (Eppendorf, Germany) using the following channel: λExc = 535 nm, λEm = 595 nm. The fluorescence signal in the wells containing cells cultured without the peptides was assumed to represent 100% cell viability. […]

A further data set relates to E. coli MDR CI 1057. Conditions: 37 °C. Here is the method:
Resistance induction experiments were performed using the previously described method. Briefly, on day one, the overnight culture of wild-type bacteria was diluted with the 2× MH broth supplemented with 1.8% NaCl to reach a final cell concentration of 10^6 CFU/mL.

The next data set relates to E. coli. In kind it is cell-based, Escherichia coli. Conditions: panel incl. clinically isolated UPEC, MDR and XDR strains; regardless of resistance profile, biofilm production, presence of serum. Here is the method:
The clinical isolates were collected and provided by Sechenov First Moscow State Medical University hospital and the State Collection of Pathogenic Microorganisms “Obolensk” (SRCAMB collection). The resistant to conventional antibiotics strains were defined as extensively drug resistant (XDR), according to [47]. Bacterial test cultures were grown in a Mueller–Hinton broth (MHB, Sigma) at 37 °C to mid-log phase and then diluted with the 2× MH medium supplemented with 1.8% NaCl (and, optionally, with fetal bovine serum (FBS, Gibco) at different concentrations) or without salt so that to reach a final cell concentration of 10^6 CFU/mL. Moreover, 50 μL of the obtained bacterial suspension were added to aliquots of 50 μL of the peptide solutions serially diluted with sterilized 0.1% bovine serum albumin (BSA) in 96-well flat-bottom polystyrene microplates (Eppendorf #0030730011). After incubation for 24 h at 37 °C and 950 rpm on the plate thermoshaker (Biosan), minimum inhibitory concentrations (MIC) were determined as the lowest peptide concentrations that prevented growth of a test microorganism observed as visible turbidity. […] In the case of Mycobacterium smegmatis, MICs were determined in the Middlebrook 7H9 medium (HiMedia). The results were expressed as the median values determined on the basis of at least three independent experiments performed in triplicate.

Regarding `CC[C@H](C)[C@@H]1NC(=O)[C@H](Cc2c[nH]c3ccccc23)NC(=O)[C@H](C(C)C)NC(=O)[C@@H]2CSSC[C@H](NC(=O)[C@H](CCCNC(=N)N)NC(=O)[C@H](CCCNC(=N)N)NC(=O)[C@H](C(C)C)NC(=O)[C@H](CCCNC(=N)N)NC(=O)[C@H](CCCNC(=N)N)NC(=O)CNC(=O)[C@H](CC(N)=O)NC(=O)[C@H](C(C)C)NC(=O)[C@H](CO)NC1=O)C(=O)N[C@@H](Cc1c[nH]c3ccccc13)C(=O)NCC(=O)N[C@@H](CO)C(=O)NCC(=O)N[C@H](C(=O)O)CSSC[C@H](NC(=O)CNC(=O)[C@H](CCCNC(=N)N)NC(=O)[C@@H]1CCCN1C(=O)[C@@H](N)CO)C(=O)N[C@@H](Cc1ccccc1)C(=O)N2` [HfBRI-25] (H-SPRGCFCVWISVNGRRVRRCWGSGC-OH; disulfide 5-25, 7-20; N-terminus and C-terminus assumed), the “Hemolytic effect on human red blood cells” value in data set [1] was “absence of hemolytic and cytotoxic properties”. Further, the “Change of MIC value after resistance selection” value in the data set with E. coli MDR CI 1057 (21 passages (days) in the presence of the agent, MHB + 0.9% NaCl) is given as “two-fold”. The “Initial MIC value before resistance selection” value with E. coli MDR CI 1057 (Mueller–Hinton broth supplemented with 0.9% NaCl) came to 1 µM. For the same compound, the “MIC value against all tested E. coli strains” value in the data set on E. coli lay in the range of 1 to 2 µM.
